In patent US9486472B2, “Methods for modulating neuronal responses” (UNIVERSITY OF BRITISH COLUMBIA CANADA, priority 2003, dated 2016):

Tests used:
[1] = tested on: CA1 neurons in hippocampal slices; experiment: LFS-induced hippocampal CA1 long-term depression (LTD); type: cell-based, rat; conditions: postsynaptic application, 100 μg/ml; 1 Hz for 15 min
Protocol: Hippocampal slices (400 μm thickness) were prepared from Sprague-Dawley rats aged 16-26 postnatal days and perfused at room temperature with artificial cerebrospinal fluid containing (mM): 126 NaCl, 26 NaHCO3, 10 glucose, 3 KCl, 1.2 KH2PO4, 1 MgCl2, and 1 CaCl2, saturated with 95% O2/5% CO2^14. The recording pipettes (4-5 MO) were filled with solution containing (mM): 135 CsCl, 10 HEPES, 5 QX-314, 4 Mg-ATP, 2 MgCl2, 0.5 EGTA, 0.2 GTP and 0.1 CaCl2, pH 7.4, 310 mOsm. Whole-cell recording of CA1 neurons and the induction of LFS-LTD were performed as previously described.^14
The level of GluR2 tyrosine phosphorylation was assayed following low-frequency stimulation (LFS) of hippocampal slices (1 Hz for 15 min, which reliably induces LTD under our experimental conditions), to determine whether tyrosine phosphorylation of GluR2 CT may be required for LFS-induced long term depression (LTD). Slices were homogenized in denaturing buffer 10 min after the stimulation and GluR subunits were immunoprecipitated and probed for phosphotyrosine. […] Induction of LTD by LFS was blocked by postsynaptic application of GST-GluR23Y (100 μg/ml), but not by the mutant peptide GST-GluR23A (100 μg/ml; FIG. 10B) or by GST-GluR2834-843 (FIG. 10C).

[2] = tested on: CA1 neurons in hippocampal slices; experiment: Insulin-induced depression of AMPA receptor-mediated EPSCs, whole-cell recording of CA1 neurons; type: cell-based, rat; conditions: 100 μg/ml in recording pipette; insulin 0.5 μM in bath
Protocol: GST-GluR23Y and GST-GluR23A were constructed by subcloning corresponding PCR fragments into pGEX 4T-1 vectors. GST fusion proteins were expressed in DH5α E. coli and purified from bacterial lysates according to the manufacturer's protocol (Pharmacia). Products were dialyzed in PBS and concentrated using Microcon-10 columns (Amicon) for intracellular application during whole-cell recordings.
Hippocampal slices (400 μm thickness) were prepared from Sprague-Dawley rats aged 16-26 postnatal days and perfused at room temperature with artificial cerebrospinal fluid containing (mM): 126 NaCl, 26 NaHCO3, 10 glucose, 3 KCl, 1.2 KH2PO4, 1 MgCl2, and 1 CaCl2, saturated with 95% O2/5% CO2^14. The recording pipettes (4-5 MO) were filled with solution containing (mM): 135 CsCl, 10 HEPES, 5 QX-314, 4 Mg-ATP, 2 MgCl2, 0.5 EGTA, 0.2 GTP and 0.1 CaCl2, pH 7.4, 310 mOsm. Whole-cell recording of CA1 neurons and the induction of LFS-LTD were performed as previously described.^14 […]

[3] = molecular target: pp60 c-Src (Homo sapiens, UniProt P12931); experiment: In vitro kinase assay with active recombinant Src; type: biochemical; conditions: GST fusion protein as substrate
Text: FIGS. 7 A-D. Insulin increases phosphorylation of tyrosine residues within the GluR2 carboxyl terminal (CT) region. A. In vitro tyrosine phosphorylation of the GluR2 CT. GST fusion proteins of the GluR1 CT (GST-GluR1CT), the GluR2 CT (GST-GluR2CT), residues 869-876 (YKEGYNVYG (SEQ ID NO. 4)) of the GluR2 CT (GST-GluR23Y), which contains a cluster of three tyrosine residues (Y869, Y873, and Y876) and the same amino acid stretch of the GluR2 CT with its tyrosine residues replaced by alanines (GST-GluR23A), along with the GST back bone (GST) as control, were incubated in the absence (−) or presence (+) of active recombinant pp60 c-Src. Phosphorylation products were immunoblotted using an anti-phosphotyrosine antibody (top panel). […] B. Expression levels of HA-GluR2 and HA-GluR23Y-3A (where tyrosines 869, 873 and 876 were mutated to alanines) 48 h after transient transfection into HEK293 cells were determined by a cell ELISA assay using permeabilized cells. C. HEK293 cells transiently transfected with HA-GluR1, HA-GluR2 or HA-GluR23Y-3A, along with empty vector (mock transfection) as control. Forty-eight hours later, the cells were treated with or without 0.5 μM insulin for 10 min. The lysates were then subjected to immunoprecipitation with an anti-HA antibody under denaturing conditions and immunoblotting with an anti-phosphotyrosine antibody (Top blot; IB: PY). […]

[4] = tested on: cultured cortical neurons; experiment: OGD-induced neuronal apoptosis (Cell Death Detection ELISAplus), GluR2-CT with PEP-1; type: cell-based; conditions: GluR2CT peptide (1 mM) with PEP-1, one hour before OGD; 24 hr after OGD
Protocol: (§1) Ischemia-like insult was mimicked by oxygen and glucose deprivation (OGD) for one hour in cultured cortical neurons (DIV 12-14). OGD is a well-characterized cell culture model of ischemia. GluR2CT peptide (1 mM) was delivered into neurons by mixing it with the carrier peptide PEP-1 and incubating neurons with the mixture for one hour before OGD challenge. […] (n=6; *: P<0.05, Student's test, compared with Control).

[5] = tested on: AMPA receptor; experiment: Cell-ELISA of cell-surface AMPA receptors after NMDA treatment, hippocampal neurons; type: cell-based, rat; conditions: 100 μM NMDA + 10 μM glycine 1 h; R2-CT delivered with Pep-1 one hour prior to and during NMDA
Protocol: (§2) (DMEM, Gibco) at 37° C. in a humidified atmosphere containing 5% CO2 for 30 min to allow the formation of R2-CT/Pep-1 complex. Hippocampal neurons (DW 12-14) were then overlaid with the preformed complex to reach a final R2-CT concentration of 1 μM and further incubated for 1 h before experiments commenced. Receptor Trafficking Assays
Cell ELISA assay: Quantification of cell-surface AMPA or NMDA receptors was performed by a colorimetric cell-ELISA assay essentially as described previously^14. Briefly, hippocampal neurons were treated with 100 μM NMDA plus 10 μM glycine for 1 h and then fixed with 4% paraformaldehyde/4% sucrose in PBS for 10 min. Half of the cells in each treatment condition were then permeabilized with 0.1% Triton-X 100 for 5 min. Receptors on the plasma membrane surface and the total cellular pool were then determined by incubating the cells with monoclonal antibodies against the extracellular domains of GluR2 or NR1 (Chemicon, 1 μg/ml) overnight at 4° C., followed by incubation with HRP-conjugated anti-mouse IgG secondary antibody (1:1000, Amersham Life Sciences) for 1 h at room temperature. Following extensive washing with PBS, cells were incubated with OPD substrate (Sigma) for approximately 10 min. Reactions were stopped with 0.2 volumes of 3N HCl, and absorbance at 492 nm was read using a spectrophotometric microplate reader.

[6] = tested on: hippocampal neurons; experiment: NMDA- or STS-induced apoptosis in cultured hippocampal neurons (Cell Death ELISA, 11-dUTP, PI staining); type: cell-based, rat
Protocol: Hippocampi were rapidly removed from embryonic E l 8 Sprague Dawley rats and pooled prior to trituration. Hippocampal cell suspensions were plated onto poly-Dlysine coated culture dishes or glass coverslips and grown in Neurobasal™ media 10 (Invitrogen) for 14 days in vitro (DIV). The media from mature 14 DIV neurons was removed and replaced with 100 μM NMDA plus 10 μM glycine for 1 h at 37° C. prior to restoring neurons to the defined growth media. Twenty four hours after NMDA/glycine application, neurons were processed using cell death assays. NMDA-induced [Ca^2+]i responses were evoked and measured using methods described previously^26.
Apoptosis quantification: NMDA-induced apoptosis was quantified either using a Cell Death Detection Elisa Plus Kit (Roche Applied Sciences), which is based on the in vitro determination of cytoplasmic histone-associated DNA fragments, or using TdT mediated addition of biotinylated 11-dUTP to the free 3′-OH ends of DNA. Absorbance readings for both assays were carried out using a microplate reader.
Propidium Iodide (PI) staining of nuclei: After the induction of apoptosis, cells were fixed with 4% parafonnaldehyde/4% sucrose for 10 min followed by ice cold acetone for 1 min, and then stained with […] PI in Dulbecco's PBS for 30 min. Stained coverslips were mounted onto glass slides and viewed with a Leica fluorescence microscope to identify condensed nuclei. Cells with condensed nuclei were counted as apoptotic and the percentage of apoptotic cells to the total number of cells was calculated to give a semi-quantitative analysis, expressed as percentage of apoptosis.
A short peptide (YKEGYNVYGIE (SEQ ID NO. 2)) corresponding to amino acid residues from 869 to 879 of the C-terminus of GluR2 (R2-CT) was synthesized and incubated with a carrier protein (Pep-1)23 at a ratio of 1:20 in Dulbecco's modified Eagle's medium
as §2

[7] = tested on: AMPA receptor; experiment: OGD-induced decrease of cell-surface AMPA receptors (Cell-ELISA), cultured cortical neurons; type: cell-based; conditions: GluR2CT peptide (1 mM) with PEP-1, one hour before OGD
Protocol: as §1

Row | Sequence | induction of LTD by LFS [1] | insulin-induced EPSC depression [2] | tyrosine phosphorylation by recombinant Src kinase [3] | OGD-induced neuronal death [4] | NMDA-induced reduction of cell-surface AMPA receptors [5] | NMDA-induced apoptosis, peptide or carrier alone ([6]; R2-CT alone or Pep-1 alone) | STS-induced neuronal apoptosis ([6]; staurosporine 100 nM, 1 h) | OGD-induced decrease in cell-surface AMPA receptor expression [7]
1 | GSTYKEGYNVYG [GST-GluR23Y, GST fusion protein of the nine amino-acid GluR2 CT stretch with three tyrosines] | blocked | prevented | phosphorylated |  |  |  |  | 
2 | YKEGYNVYGIE [R2-CT, short peptide corresponding to amino acid residues 869 to 879 of the C-terminus of GluR2] |  |  |  | largely prevented | prevented | neither R2-CT nor Pep-1 alone had any detectable effect | did not alter STS-induced neuronal apoptosis | reduced the OGD-induced decrease in cell-surface AMPA receptor expression
